# Patent US20150031668A1, “CHROMAN DERIVATIVES AS TRPM8 INHIBITORS” (AMGEN INC., priority 2013, published 2015)
# Biological target: T1, human TRPM8 (Homo sapiens, UniProt Q7Z2W7)
# T1 construct: expressed in transfected cells; host or cells: Chinese hamster ovary (CHO) cells, T-REx tetracycline-inducible expression system (Invitrogen); co-transfected with pcDNA3.1 aequorin
# Test: Luminescence readout assay for measuring intracellular calcium (aequorin, CHO cells expressing human TRPM8; icilin, L-menthol or cold activation)
# Assay type: cell-based
# Conditions: CHO cells expressing human TRPM8, icilin activation (1 μM), aequorin luminescence; read-out: hTRPM8 IC50
# How it was run: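 Activation was by 1 μM icilin, 100 μM L-menthol (test compound 2.5 min ahead) or cold buffer below 10° C (compound 1 min ahead). Calcium rise measured as aequorin luminescence in CHO cells with tetracycline-inducible human TRPM8.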
# T1 sequence (Q7Z2W7 whole entry): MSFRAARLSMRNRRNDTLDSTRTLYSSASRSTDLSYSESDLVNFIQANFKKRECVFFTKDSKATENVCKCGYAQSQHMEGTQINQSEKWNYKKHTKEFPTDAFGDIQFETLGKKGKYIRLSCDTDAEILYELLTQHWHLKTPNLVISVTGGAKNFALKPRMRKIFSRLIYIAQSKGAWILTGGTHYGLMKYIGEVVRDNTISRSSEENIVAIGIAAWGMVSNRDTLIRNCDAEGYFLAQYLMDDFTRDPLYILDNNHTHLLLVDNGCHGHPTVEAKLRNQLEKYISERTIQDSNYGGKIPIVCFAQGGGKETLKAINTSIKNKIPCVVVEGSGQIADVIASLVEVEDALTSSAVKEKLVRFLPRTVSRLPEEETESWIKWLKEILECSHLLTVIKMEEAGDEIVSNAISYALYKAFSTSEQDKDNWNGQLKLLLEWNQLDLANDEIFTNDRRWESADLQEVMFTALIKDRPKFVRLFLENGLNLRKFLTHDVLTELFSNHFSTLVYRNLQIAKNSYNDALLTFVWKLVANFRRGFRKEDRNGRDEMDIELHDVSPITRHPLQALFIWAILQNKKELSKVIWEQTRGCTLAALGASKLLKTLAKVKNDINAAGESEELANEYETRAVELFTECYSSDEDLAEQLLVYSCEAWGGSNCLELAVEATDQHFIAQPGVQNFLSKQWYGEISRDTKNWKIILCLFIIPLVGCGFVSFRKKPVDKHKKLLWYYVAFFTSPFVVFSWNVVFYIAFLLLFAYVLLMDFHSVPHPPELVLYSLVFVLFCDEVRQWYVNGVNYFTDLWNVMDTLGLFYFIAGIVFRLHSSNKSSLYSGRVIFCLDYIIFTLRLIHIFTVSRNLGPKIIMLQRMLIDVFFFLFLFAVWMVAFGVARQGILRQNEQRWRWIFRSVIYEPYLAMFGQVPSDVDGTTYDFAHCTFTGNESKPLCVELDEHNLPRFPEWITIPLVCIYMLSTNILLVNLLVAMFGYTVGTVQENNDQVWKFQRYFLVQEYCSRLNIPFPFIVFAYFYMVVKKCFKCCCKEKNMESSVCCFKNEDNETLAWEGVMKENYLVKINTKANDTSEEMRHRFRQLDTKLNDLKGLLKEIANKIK
compound,measurement,value
"Cc1ccncc1-c1ccc([C@@]2(NC(=O)c3ccc(F)cc3)CCOc3cccnc32)cc1 [Example 132, (S)-4-fluoro-N-(4-(4-(4-methylpyridin-3-yl)phenyl)-3,4-dihydro-2H-pyrano[3,2-b]pyridin-4-yl)benzamide]",IC50,216 nM
"O=C(N[C@]1(c2ccc(-c3ccc(N4CCOCC4)cc3)cc2)CCOc2cccnc21)c1ccc(F)cc1 [Example 133, (S)-4-fluoro-N-(4-(4′-morpholino-[1,1′-biphenyl]-4-yl)-3,4-dihydro-2H-pyrano[3,2-b]pyridin-4-yl)benzamide]",IC50,156 nM
"O=C(N[C@]1(c2ccc(-c3cccc(F)c3O)cc2)CCOc2cccnc21)c1ccc(F)cc1 [Example 134, (S)-4-fluoro-N-(4-(3′-fluoro-2′-hydroxy-[1,1′-biphenyl]-4-yl)-3,4-dihydro-2H-pyrano[3,2-b]pyridin-4-yl)benzamide]",IC50,320 nM
"COc1cccc(-c2ccc([C@@]3(NC(=O)c4ccc(F)cc4)CCOc4cccnc43)cc2)c1O [Example 135, (S)-4-fluoro-N-(4-(2′-hydroxy-3′-methoxy-[1,1′-biphenyl]-4-yl)-3,4-dihydro-2H-pyrano[3,2-b]pyridin-4-yl)benzamide]",IC50,113 nM
"COc1ccc(-c2ccc([C@@]3(NC(=O)c4ccc(F)cc4)CCOc4cccnc43)cc2)c(CO)c1 [Example 136, (S)-4-fluoro-N-(4-(2′-(hydroxymethyl)-4′-methoxy-[1,1′-biphenyl]-4-yl)-3,4-dihydro-2H-pyrano[3,2-b]pyridin-4-yl)benzamide]",IC50,784 nM
"CN(C)C(=O)c1ccc(-c2ccc([C@@]3(NC(=O)c4ccc(F)cc4)CCOc4cccnc43)cc2)cc1 [Example 137, (S)-4′-(4-(4-fluorobcnzamido)-3,4-dihydro-2H-pyrano[3,2-b]pyridin-4-yl)-N,N-dimethyl-[1,1′-biphenyl]-4-carboxamide]",IC50,1520 nM
"CNC(=O)c1ccc(-c2ccc([C@@]3(NC(=O)c4ccc(F)cc4)CCOc4cccnc43)cc2)cc1 [Example 138, (S)-4′-(4-(4-fluorobenzamido)-3,4-dihydro-2H-pyrano[3,2-b]pyridin-4-yl)-N-methyl-[1,1′-biphenyl]-4-carboxamide]",IC50,3160 nM
"O=C(N[C@]1(c2ccc(-c3cnc(Cl)nc3)cc2)CCOc2cccnc21)c1ccc(F)cc1 [Example 139, (S)-N-(4-(4-(2-chloropyrirnidin-5-yl)phenyl)-3,4-dihydro-2H-pyrano[3,2-b]pyridin-4-yl)-4-fluorobenzamide]",IC50,122 nM
"O=C(N[C@]1(c2ccc(-c3cc(F)ccc3CO)cc2)CCOc2cccnc21)c1ccc(F)cc1 [Example 140, (S)-4-fluoro-N-(4-(5′-fluoro-2′-(hydroxymethyl)-[1,1′-biphenyl]-4-yl)-3,4-dihydro-2H-pyrano[3,2-b]pyridin-4-yl)benzamide]",IC50,340 nM
"N#Cc1cncc(-c2ccc([C@@]3(NC(=O)c4ccc(F)cc4)CCOc4cccnc43)cc2)c1 [Example 141, (S)-N-(4-(4-(5-cyanopyridin-3-yl)phenyl)-3,4-dihydro-2H-pyrano[3,2-b]pyridin-4-yl)-4-fluorobenzamide]",IC50,260 nM
"O=C(N[C@]1(c2ccc(-c3cccc(N4CCOCC4)c3)cc2)CCOc2cccnc21)c1ccc(F)cc1 [Example 142, (S)-4-fluoro-N-(4-(3′-morpholino-[1,1′-biphenyl]-4-yl)-3,4-dihydro-2H-pyrano[3,2-b]pyridin-4-yl)benzamide]",IC50,336 nM
"Nc1ccccc1-c1ccc([C@@]2(NC(=O)c3ccc(F)cc3)CCOc3cccnc32)cc1 [Example 143, (S)-N-(4-(2′-amino-[1,1′-biphenyl]-4-yl)-3,4-dihydro-2H-pyrano[3,2-b]pyridin-4-yl)-4-fluorobenzamide]",IC50,176 nM
"CS(=O)(=O)c1ccccc1-c1ccc([C@@]2(NC(=O)c3ccc(F)cc3)CCOc3cccnc32)cc1 [Example 144, (S)-4-fluoro-N-(4-(2′-(methylsulfonyl)-[1,1′-biphenyl]-4-yl)-3,4-dihydro-2H-pyrano[3,2-b]pyridin-4-yl)benzamide]",IC50,1920 nM
"O=C(N[C@]1(c2ccc(-c3ccoc3)cc2)CCOc2cccnc21)c1ccc(F)cc1 [Example 145, (S)-4-fluoro-N-(4-(4-(furan-3-yl)phenyl)-3,4-dihydro-2H-pyrano[3,2-b]pyridin-4-yl)benzamide]",IC50,70 nM
"COc1cc(-c2ccc([C@@]3(NC(=O)c4ccc(F)cc4)CCOc4cccnc43)cc2)ccn1 [Example 146, (S)-4-fluoro-N-(4-(4-(2-methoxypyridin-4-yl)phenyl)-3,4-dihydro-2H-pyrano[3,2-b]pyridin-4-yl)benzamide]",IC50,88 nM
"Nc1ccc(-c2ccc([C@@]3(NC(=O)c4ccc(F)cc4)CCOc4cccnc43)cc2)cc1 [Example 147, (S)-N-(4-(4′-amino-[1,1′-biphenyl]-4-yl)-3,4-dihydro-2H-pyrano[3,2-b]pyridin-4-yl)-4-fluorobenzamide]",IC50,1530 nM
"Cc1ccc(-c2ccc([C@@]3(NC(=O)c4ccc(F)cc4)CCOc4cccnc43)cc2)cc1N [Example 148, (S)-N-(4-(3′-amino-4′-methyl-[1,1′-biphenyl]-4-yl)-3,4-dihydro-2H-pyrano[3,2-b]pyridin-4-yl)-4-fluorobenzamide]",IC50,770 nM
"COc1ncc(-c2ccc([C@@]3(NC(=O)c4ccc(F)cc4)CCOc4cccnc43)cc2)c(OC)n1 [Example 149, (S)-N-(4-(4-(2,4-dimethoxypyrimidin-5-yl)phenyl)-3,4-dihydro-2H-pyrano[3,2-b]pyridin-4-yl)-4-fluorobenzamide]",IC50,299 nM
"Cc1nnc(-c2cccc(-c3ccc([C@@]4(NC(=O)c5ccc(F)cc5)CCOc5cccnc54)cc3)c2)o1 [Example 150, (S)-4-fluoro-N-(4-(3′-(5-methyl-1,3,4-oxadiazol-2-yl)-[1,1′-biphenyl]-4-yl)-3,4-dihydro-2H-pyrano[3,2-b]pyridin-4-yl)benzamide]",IC50,1190 nM
"O=C(N[C@]1(c2ccc(-c3ccc(CO)cc3)cc2)CCOc2cccnc21)c1ccc(F)cc1 [Example 151, (S)-4-fluoro-N-(4-(4′-(hydroxymethyl)-[1,1′-biphenyl]-4-yl)-3,4-dihydro-2H-pyrano[3,2-b]pyridin-4-yl)benzamide]",IC50,1640 nM
"CC(C)(C)[S@@+]([O-])N[C@]1(c2ccc(OC(F)(F)F)c(F)c2)CCOc2cccnc21 [Example 152, (R)—N—((S)-4-(3-fluoro-4-(trifluoromethoxy)phenyl)-3,4-dihydro-2H-pyrano[3,2-b]pyridin-4-yl)-2-methylpropane-2-sulfinamide]",IC50,2400 nM
"N#Cc1ccc(-c2ccc([C@@]3(NC(=O)c4ccc(F)cc4)CCOc4cccnc43)cc2)cc1 [Example 153, (S)—N-(4-(4′-cyano-[1,1′-biphenyl]-4-yl)-3,4-dihydro-2H-pyrano[3,2-b]pyridin-4-yl)-4-fluorobenzamide]",IC50,112 nM
"N#Cc1ccc(-c2ccc([C@@]3(NC(=O)c4ccccc4)CCOc4cccnc43)cc2)cc1 [Example 154, (S)—N-(4-(4′-cyano-[1,1′-biphenyl]-4-yl)-3,4-dihydro-2H-pyrano[3,2-b]pyridin-4-yl)benzamide]",IC50,91 nM
"CC(=O)c1ccc(C(=O)N[C@]2(c3ccc(OC(F)(F)F)c(F)c3)CCOc3cccnc32)cc1 [Example 156, (S)-4-acetyl-N-(4-(3-fluoro-4-(trifluoromethoxy)phenyl)-3,4-dihydro-2H-pyrano[3,2-b]pyridin-4-yl)benzamide]",IC50,8 nM
"O=C(N[C@]1(c2ccc(OC(F)(F)F)c(F)c2)CCOc2cccnc21)c1ccc(C(=O)C(F)(F)F)cc1 [Example 160, (S)—N-(4-(3-fluoro-4-(trifluoromethoxy)phenyl)-3,4-dihydro-2H-pyrano[3,2-b]pyridin-4-yl)-4-(2,2,2-trifluoroacetyl)benzamide 2,2,2-trifluoroacetate]",IC50,39 nM
"O=C(O)c1ccc(C(=O)N[C@@]2(c3ccc(OC(F)(F)F)c(F)c3)COc3cccnc32)nc1 [Example 161, (R)-6-((3-(3-Fluoro-4-(trifluoromethoxy)phenyl)-2,3-dihydrofuro[3,2-b]pyridin-3-yl)carbamoyl)nicotinic acid]",IC50,42 nM
CCOC(=O)c1ncc(C(=O)N[C@]2(c3ccc(OC(F)(F)F)c(F)c3)CCOc3cccnc32)[nH]1 [Example 162],IC50,92 nM
"Cn1cncc1C(=O)N[C@]1(c2ccc(OC(F)(F)F)c(F)c2)CCOc2cccnc21 [Example 163, (S)—N-(4-(3-fluoro-4-(trifluoromethoxy)phenyl)-3,4-dihydro-2H-pyrano[3,2-b]pyridin-4-yl)-1-methyl-1H-imidazole-5-carboxamide 2,2,2-trifluoroacetate]",IC50,102 nM
"O=C(N[C@]1(c2ccc(OC(F)(F)F)c(F)c2)CCOc2nccnc21)c1ccc(=O)[nH]c1 [Example 164, (S)-N-(8-(3-fluoro-4-(trifluoromethoxy)phenyl)-7,8-dihydro-6H-pyrano[2,3-b]pyrazin-8-yl)-6-oxo-1,6-dihydropyridine-3-carboxamide]",IC50,2230 nM
"O=C(N[C@]1(c2ccc(OC(F)(F)F)c(F)c2)CC(=O)c2cccnc21)c1ccc(=O)[nH]c1 [Example 165, (S)-N-(7-(3-fluoro-4-(trifluoromethoxy)phenyl)-5-oxo-6,7-dihydro-5H-cyclopenta[b]pyridin-7-yl)-6-oxo-1,6-dihydropyridine-3-carboxamide]",IC50,531 nM
"Cc1cc(C(=O)N[C@]2(c3ccc(OC(F)(F)F)c(F)c3)CCOc3cccnc32)ncc1Br [Example 166, (S)-5-bromo-N-(4-(3-fluoro-4-(trifluoromethoxy)phenyl)-3,4-dihydro-2H-pyrano[3,2-b]pyridin-4-yl)-4-methylpicolin amide]",IC50,10 nM
"Cc1cc(C(=O)N[C@]2(c3ccc(OC(F)(F)F)c(F)c3)CCOc3cccnc32)ccc1Br [Example 167, (S)-4-bromo-N-(4-(3-fluoro-4-(trifluoromethoxy)phenyl)-3,4-dihydro-2H-pyrano [3,2-b]pyridin-4-yl)-3-methylbenzamide]",IC50,19 nM
